Patent US20250228850A1, “COMBINATION OF A CXCR7 ANTAGONIST WITH AN S1P1 RECEPTOR MODULATOR” (Idorsia Pharmaceuticals Ltd., priority 2019, published 2025)
Entries after “also recorded” stand apart in the source; their conditions may differ.

Tests used:
PLP-induced EAE mice = test: Monotherapy efficacy experiment in the PLP-induced EAE model (therapeutic setting); assay type: in vivo, mouse (SJL/J)
Experimental: (§1) Female SJL/J mice are immunized with an emulsion of PLP in CFA and pertussis toxin (day 0). A total of 100 μg of PLP is injected per mice at two sites subcutaneously in each flank of the abdomen. Mice are injected intraperitoneally with pertussis toxin a second time, 2 days after the first injection (day 2). Within 9 to 16 days, mice develop signs of paralysis which will be graded on a scale from 0 to 5 assessing the tail and limbs defined as: 0=no clinical sign of EAE, 0.5=end tail paralyzed or one limb weakness, 1=tail paralyzed or two limbs weakness, 1.5=tail paralyzed and one hind limb weakness, 2=tail paralyzed and bilateral partial hind limb paralysis, 2.5=tail paralyzed and unilateral complete hind limb paralysis, 2.75=score of 2.5+unilateral partial hind limb paralysis, 3=complete bilateral hind limb paralysis, 3.25=3+unilateral partial forelimb paralysis, 3.5=3+unilateral complete forelimb paralysis, 4=complete paralysis (moribund) and, 5=death or euthanized. The disease progression follows a relapsing-remitting course with a first peak of disease occurring three to five days after the onset, followed by a remission phase and a second peak of the disease between 20-30 days after EAE induction.
The study consists of four treatment groups: • 1. Vehicle (water) b.i.d., from disease onset for each mouse • 2.
Clinical scores are assessed on a daily basis, in a blinded manner and disease development is compared between vehicle-treated mice and mice receiving COMPOUND. The cumulative disease score is calculated for each mouse by summing all the daily clinical scores over the 30-days after treatment initiation. […] CXCL12 plasma concentrations are determined as previously described in example A.

MOG-induced EAE mice = test: Monotherapy efficacy experiment in MOG-induced EAE model (preventive setting); assay type: in vivo, mouse (C57BL/6)
Experimental: as §1, with “C57BL/6” for “SJL/J”, “MOG” for “PLP”, “complete Freund's adjuvant (CFA)” for “CFA”, “150” for “100”, “14” for “16”, “euthanized.” for “euthanized. The disease progression follows a relapsing-remitting course with a first peak of disease occurring three to five days after the onset, followed by a remission phase and a second peak of the disease between 20-30 days after EAE induction.”
The disease progression follows a chronic progressive course with no remission.
It consists of four treatment groups: • 1. Vehicle (water) b.i.d., from day 0 • 2.
Clinical scores are assessed on a daily basis and disease development is compared between vehicle-treated mice and mice receiving COMPOUND. The cumulative disease score is calculated for each mouse by summing all the daily clinical scores over the 29-days study period. The experiment is terminated at day 29, 1 to 4 hours post dosing. […] CXCL12 plasma concentrations are determined using a commercial quantikine ELISA mouse CXCL12/SDF1c kit from R&D systems, according to manufacturer's instructions.
Groups of 10 mice are dosed orally starting at the day of disease induction (day 0). It consists of two treatment groups: • 1. Vehicle (0.5% Methylcellulose/0.5% Tween® 80) b.i.d., from day 0 • 2. Fingolimod (0.03 mg/kg) q.d.+Vehicle q.d., from day 0
Clinical scores are assessed on a daily basis and disease development is compared between vehicle-treated mice and mice receiving fingolimod. The cumulative disease score is calculated for each mouse by summing all the daily clinical scores over the 27-days study period. The experiment is terminated at day 27.

[1] = tested on: cuprizone-induced demyelination mice; test: Cuprizone-induced demyelination model with cuprizone withdrawal, Experiment 2; assay type: in vivo, mouse (C57BL/6); conditions: week 5 to week 7; COMPOUND 100 mg/kg b.i.d., fingolimod 0.3 mg/kg q.d.
Experimental: Male C57BL/6 mice are exposed to a 0.2% cuprizone diet for six weeks and then switched to control food for one more week. Groups of 8-9 mice are dosed orally starting after five weeks of cuprizone exposure. It consists of three treatment groups: • 1. Vehicle (0.5% Methylcellulose/0.5% Tween® 80) b.i.d., from week 5 to week 7 • 2. Fingolimod (0.3 mg/kg) q.d.+Vehicle q.d., from week 5 to week 7 • 3. […] Hematology parameters, including lymphocyte count, are measured at the termination of the experiment, one hour after the last dosing. […] Brain samples are isolated and fixed for histopathological and immunohistochemistry examinations to assess the degree of demyelination (Luxol Fast Blue for myelin staining).

healthy male subjects = test: First-in-human single-dose study in healthy male subjects (NCT03869320); assay type: in vivo
Experimental: […] […] In the 30 mg dose level group the effect of food is additionally investigated by administering the same treatment to the same subjects after a standardized high-fat breakfast.

[2] = tested on: cuprizone-induced demyelination mice; test: Cuprizone-induced demyelination mouse model, Experiment 1; assay type: in vivo, mouse (C57BL/6); conditions: 6 weeks
Experimental: Male C57BL/6 mice are exposed to cuprizone (CPZ; 150 mg/kg, b.i.d.), a […] chelating agent which leads to the death of mature oligodendrocytes, by oral gavage twice daily for six weeks. […] The experiment is terminated after 6 weeks of cuprizone exposure. […] CXCL12 plasma concentrations are measured as previously described in example A. Brain samples are isolated and fixed for histopathological and immunohistochemistry examinations to assess the degree of demyelination (Luxol Fast Blue for myelin staining) and the loss of mature oligodendrocytes (GSTiT staining).

[3] = tested on: CXCL12 in plasma (biomarker of CXCR7 receptor antagonist); test: Dose finding of COMPOUND in naive mice, CXCL12 elevation in plasma; assay type: in vivo, mouse (C57BL/6); conditions: COMPOUND 100 mg/kg b.i.d. oral, 3 days, naive C57BL/6 mice, exposure at trough (14 hours after last dosing), only the highest dose tested
Source text: CXCL12 or CXCL11 plasma concentrations may be determined using methods well known in the art, e.g. an Ella® immunoassay (Bio-Techne®), or a commercial quantikine ELISA mouse CXCL12/SDF1α kit from R&D systems.

[4] = COMPOUND 10, 100, 150 mg/kg b.i.d. from disease onset

O=C(N[C@H]1CCN(CC2CC2)C[C@@H]1C(=O)NC1(c2ncccn2)CC1)c1cc(-c2ccc(F)cc2F)on1 [COMPOUND, (3S,4S)-1-Cyclopropylmethyl-4-{[5-(2,4-difluoro-phenyl)-isoxazole-3-carbonyl]-amino}-piperidine-3-carboxylic acid (1-pyrimidin-2-yl-cyclopropyl)-amide]
CXCL11 plasma levels at trough (PLP-induced EAE mice; COMPOUND 100 mg/kg b.i.d.): increases | CXCL12 plasma levels at trough (PLP-induced EAE mice; COMPOUND 100 mg/kg b.i.d.): increases | clinical scores in the PLP-induced EAE model (PLP-induced EAE mice; COMPOUND 100 mg/kg b.i.d.): maximally reduces | plasma CXCL11 levels (PLP-induced EAE mice; [4]): dose-dependent increase | plasma CXCL12 levels (PLP-induced EAE mice; [4]): dose-dependent increase | overall extent of the disease, mean cumulative disease scores over 30 days after treatment initiation (PLP-induced EAE mice; COMPOUND 10, 100, 150 mg/kg b.i.d. oral from disease onset (therapeutic)): dose-dependent efficacy | overall burden of EAE disease (MOG-induced EAE mice; COMPOUND 100 mg/kg b.i.d., preventive setting): significantly reduces | plasma CXCL12 levels (MOG-induced EAE mice; COMPOUND 10, 30, 100 mg/kg b.i.d. from day 0, day 29, 1 to 4 hours post dosing): dose-dependent increase | overall extent of EAE disease, mean cumulative disease scores over the 29-days study (MOG-induced EAE mice; COMPOUND 10, 30, 100 mg/kg b.i.d. oral from day 0 (preventive)): dose-dependent efficacy | spontaneous remyelination in the corpus callosum one week after CPZ withdrawal [1]: accelerated significantly | food effect on the pharmacokinetics (healthy male subjects; 30 mg, standardized high-fat breakfast vs fasted): no relevant food effect | dose dependence of plasma CXCL12 concentrations (healthy male subjects; 1 to 200 mg single oral dose): dose-dependently increase | exposure increase across the dose range (healthy male subjects; 1 to 200 mg single oral dose): essentially dose-proportional | CXCL11 concentrations (healthy male subjects; healthy volunteers, single dose): essentially unchanged | route of excretion (healthy male subjects; oral microtracer, 100 mg dose level group): mainly excreted in feces and to a minor extent in urine | plasma CXCL12 levels compared to baseline (healthy male subjects; single oral dose, across tested dose range): approximately 2 fold | safety and tolerability (healthy male subjects; single oral doses from 1 to 200 mg, healthy male subjects): safe and well tolerated | mature oligodendrocyte counts in the corpus callosum ([2]; COMPOUND 100 mg/kg b.i.d. preventive from day 0 (prev-CPZ)): increased significantly | myelin stain (Luxol Fast Blue) in the corpus callosum ([2]; COMPOUND 100 mg/kg b.i.d. preventive, co-administered with cuprizone from day 0 (prev-CPZ)): increased significantly | mature oligodendrocyte counts in the corpus callosum ([2]; COMPOUND 100 mg/kg b.i.d. therapeutic from week 3 (ther-CPZ)): increased significantly | myelin stain (Luxol Fast Blue) in the corpus callosum ([2]; COMPOUND 100 mg/kg b.i.d. therapeutic, starting 3 weeks after cuprizone start (ther-CPZ)): increased significantly | plasma CXCL12 increase over 24 h [3]: sustain plasma CXCL12 increase over 24 h; also recorded: sustain CXCL12 plasma levels over 24 hours
